Reference: US8969388B1, “Substituted pyrazolone compounds and methods of use” (Calitor Sciences, LLC, priority 2012, dated 2015)
Read-outs that look alike come from different tables or passages of the source. Values belong to the compound of their own block, whether it stands above or below them.

Legend:
[1] = Pharmacokinetics after intravenous and oral administration in rats; format: in vivo; conditions: for F: oral bioavailability, oral dose not given; for AUC(0-t) / half-life / Vd: rat, plasma; for clearance (CL) after iv dosing / AUC(0-t) / half-life / Vd: iv dosing; for Vd: read-out: Vss
Protocol: The compounds disclosed herein are assessed in pharmacokinetic studies in mice, rats, dogs or monkeys. The compounds are administered as a water solution, 2% HPMC+1% TWEEN®80 in water solution, 5% DMSO+5% solutol in saline, 4% MC suspension or capsule. For the intravenous administration, the animals are generally given at 1 or 2 mg/kg dose. For the oral (p.o.) dosing, mice and rats are generally given 5 or 10 mg/kg dose, and dogs and monkeys are generally given 10 mg/kg dose. The blood samples (0.3 mL) are drawn at 0.25, 0.5, 1.0, 2.0, 3.0, 4.0, 6.0, 8.0, 12 and 24 h time points or 0.083, 0.25, 0.5, 1.0, 2.0, 4.0, 6.0, 8.0 and 24 h time points and centrifuged at 3,000 or 4000 rpm for 2 to 10 min. The plasma solutions are collected, stored at −20° C. or −70° C. until analyzed by LC/MS/MS as described above.

c-Met (h) = molecular target: T1, c-Met (h) (Homo sapiens, UniProt P08581); assay: KINOMEscan competition binding assay, c-Met (h)
T1 construct: host or cells: E. coli BL21-derived host (T7 phage) or HEK-293
T1 sequence (P08581 25-1390): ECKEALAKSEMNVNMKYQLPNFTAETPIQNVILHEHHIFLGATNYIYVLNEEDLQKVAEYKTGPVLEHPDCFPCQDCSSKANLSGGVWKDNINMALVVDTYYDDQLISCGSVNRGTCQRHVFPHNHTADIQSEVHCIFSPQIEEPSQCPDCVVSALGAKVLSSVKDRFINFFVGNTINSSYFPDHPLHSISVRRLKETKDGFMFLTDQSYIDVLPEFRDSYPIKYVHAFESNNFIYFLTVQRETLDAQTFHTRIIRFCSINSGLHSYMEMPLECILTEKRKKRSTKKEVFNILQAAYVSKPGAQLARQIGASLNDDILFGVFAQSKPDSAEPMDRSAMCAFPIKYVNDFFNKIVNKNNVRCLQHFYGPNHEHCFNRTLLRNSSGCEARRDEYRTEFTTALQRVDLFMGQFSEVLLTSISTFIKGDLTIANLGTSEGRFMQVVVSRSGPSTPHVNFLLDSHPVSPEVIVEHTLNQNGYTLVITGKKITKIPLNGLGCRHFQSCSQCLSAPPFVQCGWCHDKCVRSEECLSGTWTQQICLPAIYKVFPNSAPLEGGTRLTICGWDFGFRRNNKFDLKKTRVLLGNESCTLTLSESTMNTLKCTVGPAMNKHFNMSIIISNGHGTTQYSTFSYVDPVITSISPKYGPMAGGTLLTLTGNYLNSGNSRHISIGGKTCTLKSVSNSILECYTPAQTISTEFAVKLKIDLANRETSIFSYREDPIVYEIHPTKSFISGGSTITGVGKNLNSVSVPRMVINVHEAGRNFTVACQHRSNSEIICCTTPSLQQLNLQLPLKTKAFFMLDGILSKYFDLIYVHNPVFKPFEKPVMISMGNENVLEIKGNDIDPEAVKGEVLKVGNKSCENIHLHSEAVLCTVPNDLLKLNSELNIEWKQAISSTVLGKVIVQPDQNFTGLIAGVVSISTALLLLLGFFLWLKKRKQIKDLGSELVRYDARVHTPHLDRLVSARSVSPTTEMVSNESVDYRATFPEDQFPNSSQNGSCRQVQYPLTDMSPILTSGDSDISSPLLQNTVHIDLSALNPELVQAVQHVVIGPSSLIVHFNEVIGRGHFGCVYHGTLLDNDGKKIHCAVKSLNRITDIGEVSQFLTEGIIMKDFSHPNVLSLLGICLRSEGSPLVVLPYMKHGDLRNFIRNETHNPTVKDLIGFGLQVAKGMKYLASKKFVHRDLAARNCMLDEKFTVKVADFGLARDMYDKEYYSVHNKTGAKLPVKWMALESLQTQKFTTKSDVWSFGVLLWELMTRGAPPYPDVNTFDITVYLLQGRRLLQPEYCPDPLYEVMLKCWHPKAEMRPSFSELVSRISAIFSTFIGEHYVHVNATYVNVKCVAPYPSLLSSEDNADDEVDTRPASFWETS
Protocol: (§1) Alternatively, the kinase activities of the compounds can be measured using KINOMEscan™, which is based on a competition binding assay that quantitatively measures the ability of a compound to compete with an immobilized, active-site directed ligand. The assay was performed by combining three components: DNA-tagged kinase; immobilized ligand; and a test compound. The ability of the test compound to compete with the immobilized ligand was measured via quantitative PCR of the DNA tag.
(§2) For most assays, kinase-tagged T7 phage strains were prepared in an E. coli host derived from the BL21 strain. E. coli were grown to log-phase and infected with T7 phage and incubated with shaking at 32° C. until lysis. The lysates were centrifuged and filtered to remove cell debris. The remaining kinases were produced in HEK-293 cells and subsequently tagged with DNA for qPCR detection. Streptavidin-coated magnetic beads were treated with biotinylated small molecule ligands for 30 minutes at room temperature to generate affinity resins for kinase assays. The liganded beads were blocked with excess biotin and washed with blocking buffer (SEABLOCK™ (Pierce), 1% BSA, 0.05% TWEEN®20, 1 mM DTT) to remove unbound ligand and to reduce nonspecific binding. Binding reactions were assembled by combining kinases, liganded affinity beads, and test compounds in 1× binding buffer (20% SEABLOCK™, 0.17×PBS, 0.05% TWEEN®20, 6 mM DTT). All reactions were performed in polystyrene 96-well plates in a final volume of 0.135 mL. The assay plates were incubated at room temperature with shaking for 1 hour and the affinity beads were washed with wash buffer (1×PBS, 0.05% TWEEN®20). The beads were then re-suspended in elution buffer (1×PBS, 0.05% TWEEN®20, 0.5 μM non-biotinylated affinity ligand) and incubated at room temperature with shaking for 30 minutes. The kinase concentration in the eluates was measured by qPCR.
(§3) The kinase assays described herein were performed using KINOMEscan™ Profiling Service at DiscoveRx Corporation, 42501 Albrae St. Fremont, Calif.

U87MG glioblastoma cells = assay: U87MG tumor xenograft model, tumor growth inhibition; format: in vivo, athymic nude mice (BALB/cA nu/nu); conditions: mice, oral gavage, 12 days
Protocol: The efficacy of compounds disclosed herein was evaluated in a standard murine model of tumorigenesis. Human tumor cells (U87MG glioblastoma cells from ATCC) were expended in culture, harvested, and injected subcutaneously onto the rear flank of 6-7 week old female athymic nude mice (BALB/cA nu/nu, Hunan SLAC Laboratory Animal, Co.) (n=6-10 for vehicle group and for each dosing group). When tumors reached a volume of 100-250 mm^3, animals were randomly divided into vehicle control (for example, 5% DMSO+70% Captisol® (30%), 7% HCl (pH1), 18% Captisol® (30%); or 7% DMSO, 7% HCl (pH1), 70% Captisol® (30%), 16% Captisol® (30%), or the like) and compound groups. Subsequent administration of compound by oral gavage begins anywhere from day 0 to day 15 post tumor cell challenge and generally continues with once a day for the duration of the experiment.
Progression of tumor growth is assessed by tumor volumes and recorded as a function of time. The long (L) and short (W) axes of the subcutaneous tumors were measured with calipers twice weekly, and the tumor volume (TV) calculated as (L×W^2)/2). TGI was calculated from the difference between the median tumor volumes of vehicle-treated and drug-treated mice, expressed as a percentage of the median tumor volume of the vehicle-treated control group, by the following relation:
[formula] Initial statistical analysis is done by repeated measures analysis of variance (RMANOVA), followed by Scheffe psot hoc testing for multiple comparisons. Vehicle alone (5% DMSO+70% Captisol® (30%), 7% HCl (pH1), 18% Captisol® (30%); or 7% DMSO, 7% HCl (pH1), 70% Captisol® (30%), 16% Captisol® (30%), or the like) is the negative control.

KDR (h) = molecular target: T2, KDR (h) (Homo sapiens, UniProt P35968); assay: KINOMEscan competition binding assay, KDR (h)
T2 construct: host or cells: E. coli BL21-derived host (T7 phage) or HEK-293
T2 sequence (P35968 20-1356): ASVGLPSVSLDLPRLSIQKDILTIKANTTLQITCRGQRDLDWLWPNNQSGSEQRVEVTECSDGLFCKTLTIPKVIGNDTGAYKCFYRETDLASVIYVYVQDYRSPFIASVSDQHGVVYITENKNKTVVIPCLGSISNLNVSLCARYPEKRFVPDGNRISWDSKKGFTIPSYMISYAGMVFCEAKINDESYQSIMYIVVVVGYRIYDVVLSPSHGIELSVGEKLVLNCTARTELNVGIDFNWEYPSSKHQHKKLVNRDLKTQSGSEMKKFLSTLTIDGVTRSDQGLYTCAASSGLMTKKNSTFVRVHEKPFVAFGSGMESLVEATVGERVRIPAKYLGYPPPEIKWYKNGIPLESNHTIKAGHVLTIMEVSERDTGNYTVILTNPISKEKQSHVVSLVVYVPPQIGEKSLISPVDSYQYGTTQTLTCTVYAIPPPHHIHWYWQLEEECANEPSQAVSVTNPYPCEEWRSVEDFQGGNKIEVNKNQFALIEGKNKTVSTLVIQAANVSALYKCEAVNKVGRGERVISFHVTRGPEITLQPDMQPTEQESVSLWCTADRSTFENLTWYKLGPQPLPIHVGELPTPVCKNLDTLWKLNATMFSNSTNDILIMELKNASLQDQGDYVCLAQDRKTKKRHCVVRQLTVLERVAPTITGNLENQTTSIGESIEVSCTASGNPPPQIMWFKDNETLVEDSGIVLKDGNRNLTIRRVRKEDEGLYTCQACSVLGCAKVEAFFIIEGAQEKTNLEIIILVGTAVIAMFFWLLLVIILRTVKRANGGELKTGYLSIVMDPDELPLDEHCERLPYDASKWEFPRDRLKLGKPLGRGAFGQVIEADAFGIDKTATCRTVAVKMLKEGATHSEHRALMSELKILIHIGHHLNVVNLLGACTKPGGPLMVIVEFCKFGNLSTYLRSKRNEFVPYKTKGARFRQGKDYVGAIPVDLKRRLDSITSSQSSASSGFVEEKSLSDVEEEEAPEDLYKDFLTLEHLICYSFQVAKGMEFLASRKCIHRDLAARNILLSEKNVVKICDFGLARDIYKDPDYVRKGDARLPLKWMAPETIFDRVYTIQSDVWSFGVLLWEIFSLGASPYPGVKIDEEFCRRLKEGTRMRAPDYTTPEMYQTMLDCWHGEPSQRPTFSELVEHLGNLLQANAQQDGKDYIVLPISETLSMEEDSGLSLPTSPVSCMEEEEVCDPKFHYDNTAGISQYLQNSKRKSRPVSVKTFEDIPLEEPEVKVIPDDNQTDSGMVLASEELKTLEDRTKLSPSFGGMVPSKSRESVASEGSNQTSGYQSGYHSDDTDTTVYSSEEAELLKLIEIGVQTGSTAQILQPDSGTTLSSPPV
Protocol: as §1, §2, §3

- clearance (CL) after iv dosing ([1]; 2 mg/kg): 0.03 L/h/kg
- F ([1]; iv dose 2 mg/kg): 69.7%
- AUC(0-t) ([1]; 2 mg/kg): 56600 ng·h/mL
- half-life ([1]; 2 mg/kg): 264 min
- Vd ([1]; 2 mg/kg): 0.18 L/kg
- Kd (c-Met (h)): 5.1 nM
- Kd (KDR (h)): 13 nM
Structure (SMILES): CC(=O)Nc1cc(Oc2ccc(NC(=O)c3c(C)n(C)n(-c4ccccc4)c3=O)cc2F)ccn1 [Ex. 23, N-(4-((2-acetamidopyridin-4-yl)oxy)-3-fluorophenyl)-1,5-dimethyl-3-oxo-2-phenyl-2,3-dihydro-1H-pyrazole-4-carboxamide]

- Kd (c-Met (h)): 24 nM
- Kd (KDR (h)): 540 nM
Structure (SMILES): CC(=O)Nc1nccc(Oc2ccc(NC(=O)c3c(C)n(C)n(-c4ccccc4)c3=O)cc2F)c1Cl [Ex. 4, N-(4-((2-acetamido-3-chloropyridin-4-yl)oxy)-3-fluorophenyl)-1,5-dimethyl-3-oxo-2-phenyl-2,3-dihydro-1H-pyrazole-4-carboxamide]

- Kd (c-Met (h)): 16 nM
- Kd (KDR (h)): 26 nM
Structure (SMILES): Cc1c(C(=O)Nc2ccc(Oc3ccnc(N)c3Cl)cn2)c(=O)n(-c2ccccc2)n1C [Ex. 19, N-(5-((2-amino-3-chloropyridin-4-yl)oxy)pyridin-2-yl)-1,5-dimethyl-3-oxo-2-phenyl-2,3-dihydro-1H-pyrazole-4-carboxamide]
- TGI % (on last day of dosing) (U87MG glioblastoma cells; 6 mg/kg): 22%
- TGI % (on last day of dosing) (U87MG glioblastoma cells; 20 mg/kg): 49%
- TGI % (on last day of dosing) (U87MG glioblastoma cells; 60 mg/kg): 103%

- Kd (c-Met (h)): 120 nM
- Kd (KDR (h)): 1100 nM
Structure (SMILES): CC(=O)Nc1nccc(Oc2ccc(NC(=O)c3c(C)n(C)n(-c4ccccc4)c3=O)cc2)c1Cl [Ex. 21, N-(4-((2-acetamido-3-chloropyridin-4-yl)oxy)phenyl)-1,5-dimethyl-3-oxo-2-phenyl-2,3-dihydro-1H-pyrazole-4-carboxamide]

- Kd (c-Met (h)): 620 nM
- Kd (KDR (h)): 1600 nM
Structure (SMILES): CC(=O)Nc1nccc(Oc2ccc(NC(=O)c3c(C)n(C)n(-c4ccccc4)c3=O)nc2)c1Cl [Ex. 20, N-(5-((2-acetamido-3-chloropyridin-4-yl)oxy)pyridin-2-yl)-1,5-dimethyl-3-oxo-2-phenyl-2,3-dihydro-1H-pyrazole-4-carboxamide]

- Kd (c-Met (h)): 18 nM
- Kd (KDR (h)): 570 nM
Structure (SMILES): CC(=O)Nc1cc(Oc2ccc(NC(=O)c3c(C)n(C)n(-c4ccccc4)c3=O)c(Cl)c2)ccn1 [Ex. 13, N-(4-((2-acetamidopyridin-4-yl)oxy)-2-chlorophenyl)-1,5-dimethyl-3-oxo-2-phenyl-2,3-dihydro-1H-pyrazole-4-carboxamide]

Second part, the compound before the results:

Structure (SMILES): CC(=O)Nc1cc(Oc2ccc(NC(=O)c3c(C)n(C)n(-c4ccccc4)c3=O)nc2)ccn1 [Ex. 17, N-(5-((2-acetamidopyridin-4-yl)oxy)pyridin-2-yl)-1,5-dimethyl-3-oxo-2-phenyl-2,3-dihydro-1H-pyrazole-4-carboxamide]
- clearance (CL) after iv dosing ([1]; 2 mg/kg): 0.03 L/h/kg
- F ([1]; iv dose 2 mg/kg): 59.7%
- AUC(0-t) ([1]; 2 mg/kg): 69900 ng·h/mL
- half-life ([1]; 2 mg/kg): 437 min
- Vd ([1]; 2 mg/kg): 0.22 L/kg
- Kd (c-Met (h)): 20 nM
- TGI % (on last day of dosing) (U87MG glioblastoma cells; 6 mg/kg): 26%
- TGI % (on last day of dosing) (U87MG glioblastoma cells; 20 mg/kg): 56%
- TGI % (on last day of dosing) (U87MG glioblastoma cells; 60 mg/kg): 85%
- Kd (KDR (h)): 25 nM

Structure (SMILES): [2H]c1cc(Oc2ccnc(N)c2)ccc1NC(=O)c1c(C)n(C)n(-c2ccccc2)c1=O [Ex. 15, N-(4-((2-aminopyridin-4-yl)oxy)-2-deuteriumphenyl)-1,5-dimethyl-3-oxo-2-phenyl-2,3-dihydro-1H-pyrazole-4-carboxamide]
- Kd (c-Met (h)): 180 nM
- Kd (KDR (h)): 3800 nM

Structure (SMILES): Cc1c(C(=O)Nc2cc(F)c(Oc3ccnc(N)c3Cl)cc2F)c(=O)n(-c2ccccc2)n1C [Ex. 11, N-(4-((2-amino-3-chloropyridin-4-yl)oxy)-2,5-difluorophenyl)-1,5-dimethyl-3-oxo-2-phenyl-2,3-dihydro-1H-pyrazole-4-carboxamide]
- clearance (CL) after iv dosing ([1]; 2 mg/kg): 0.57 L/h/kg
- F ([1]; iv dose 2 mg/kg): 88.0%
- AUC(0-t) ([1]; 2 mg/kg): 3340 ng·h/mL
- half-life ([1]; 2 mg/kg): 174 min
- Vd ([1]; 2 mg/kg): 1.17 L/kg
- Kd (c-Met (h)): 1.4 nM
- Kd (KDR (h)): 340 nM

Structure (SMILES): Cc1c(C(=O)Nc2ccc(Oc3ccnc(N)c3)c(F)c2F)c(=O)n(-c2ccccc2)n1C [Ex. 5, N-(4-((2-aminopyridin-4-yl)oxy)-2,3-difluorophenyl)-1,5-dimethyl-3-oxo-2-phenyl-2,3-dihydro-1H-pyrazole-4-carboxamide]
- clearance (CL) after iv dosing ([1]; 2 mg/kg): 1.87 L/h/kg
- F ([1]; iv dose 2 mg/kg): 19.1%
- AUC(0-t) ([1]; 2 mg/kg): 1080 ng·h/mL
- half-life ([1]; 2 mg/kg): 18.6 min
- Vd ([1]; 2 mg/kg): 0.53 L/kg
- Kd (c-Met (h)): 37 nM
- Kd (KDR (h)): 3300 nM

Structure (SMILES): Cc1c(C(=O)Nc2ccc(Oc3ccnc(N)c3)cn2)c(=O)n(-c2ccccc2)n1C [Ex. 16, N-(5-((2-aminopyridin-4-yl)oxy)pyridin-2-yl)-1,5-dimethyl-3-oxo-2-phenyl-2,3-dihydro-1H-pyrazole-4-carboxamide]
- Kd (c-Met (h)): 200 nM
- Kd (KDR (h)): 1800 nM

Structure (SMILES): CC(=O)Nc1cc(Oc2cc(F)c(NC(=O)c3c(C)n(C)n(-c4ccccc4)c3=O)cc2F)ccn1 [Ex. 9, N-(4-((2-acetamidopyridin-4-yl)oxy)-2,5-difluorophenyl)-1,5-dimethyl-3-oxo-2-phenyl-2,3-dihydro-1H-pyrazole-4-carboxamide]
- clearance (CL) after iv dosing ([1]; 1 mg/kg): 0.04 L/h/kg
- F ([1]; iv dose 1 mg/kg): 61.2%
- AUC(0-t) ([1]; 1 mg/kg): 23300 ng·h/mL
- half-life ([1]; 1 mg/kg): 286 min
- Vd ([1]; 1 mg/kg): 0.24 L/kg
- Kd (c-Met (h)): 1.8 nM
- Kd (KDR (h)): 160 nM

Structure (SMILES): Cc1c(C(=O)Nc2cc(F)c(Oc3ccnc(NC(=O)N4CCOCC4)c3)cc2F)c(=O)n(-c2ccccc2)n1C [Ex. 10, N-(4-(4-(1,5-dimethyl-3-oxo-2-phenyl-2,3-dihydro-1H-pyrazole-4-carboxamido)-2,5-difluorophenoxy)pyridin-2-yl)morpholine-4-carboxamide]
- clearance (CL) after iv dosing ([1]; 1 mg/kg): 0.11 L/h/kg
- F ([1]; iv dose 1 mg/kg): 83.2%
- AUC(0-t) ([1]; 1 mg/kg): 9640 ng·h/mL
- half-life ([1]; 1 mg/kg): 276 min
- Vd ([1]; 1 mg/kg): 0.53 L/kg

Structure (SMILES): Cc1c(C(=O)Nc2ccc(Oc3ccnc(N)c3)cc2Cl)c(=O)n(-c2ccccc2)n1C [Ex. 12, N-(4-((2-aminopyridin-4-yl)oxy)-2-chlorophenyl)-1,5-dimethyl-3-oxo-2-phenyl-2,3-dihydro-1H-pyrazole-4-carboxamide]
- clearance (CL) after iv dosing ([1]; 2 mg/kg): 0.94 L/h/kg
- F ([1]; iv dose 2 mg/kg): 125.0%
- AUC(0-t) ([1]; 2 mg/kg): 2120 ng·h/mL
- half-life ([1]; 2 mg/kg): 93.6 min
- Vd ([1]; 2 mg/kg): 0.69 L/kg
- Kd (c-Met (h)): 56 nM
- Kd (KDR (h)): 19000 nM
